Like-named read-outs stand apart in the source and are kept apart here.

Format in all cases: cell-based
One experiment deals with T1, IRAK4 (Homo sapiens, UniProt Q9NWZ3).
T1 construct: expression of target proteins in cells; endogenous in cells
T1 sequence (Q9NWZ3 1-460): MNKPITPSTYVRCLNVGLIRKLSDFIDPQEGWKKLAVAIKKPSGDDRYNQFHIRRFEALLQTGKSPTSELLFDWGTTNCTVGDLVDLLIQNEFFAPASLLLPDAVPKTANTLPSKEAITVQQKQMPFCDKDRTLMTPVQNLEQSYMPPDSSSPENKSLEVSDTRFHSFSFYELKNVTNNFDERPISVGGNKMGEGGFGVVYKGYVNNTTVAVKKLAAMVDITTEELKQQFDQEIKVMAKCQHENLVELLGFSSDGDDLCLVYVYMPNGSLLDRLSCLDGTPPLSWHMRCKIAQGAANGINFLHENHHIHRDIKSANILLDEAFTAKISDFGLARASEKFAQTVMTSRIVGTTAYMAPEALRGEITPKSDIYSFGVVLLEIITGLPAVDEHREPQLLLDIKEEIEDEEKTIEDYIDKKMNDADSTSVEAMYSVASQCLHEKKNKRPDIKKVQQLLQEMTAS
Description: Western blot degradation of IRAK4. The conditions noted are these: hPBMC Cell; 24 hours. On the procedure: Conventional Western blot assay was performed to evaluate the effects of the compounds of the present disclosure on the expression of target proteins in cells.
(1) Cell Seeding and Protein Harvesting: The selected cells were processed according to the cell seeding procedure and protein harvesting procedure in Table II-2.
(2) To the collected supernatant, 5×SDS sample loading buffer was added, followed by denaturation at 95 °C for 5 minutes. The denatured samples were then separated by SDS-PAGE electrophoresis on a polyacrylamide gel. Proteins were transferred to a nitrocellulose membrane (0.45 μm NC membrane), blocked with blocking buffer at room temperature for 1 hour, and subjected to antibody incubation and development procedures according to the antibody manufacturer's instructions (Cell Signaling Technology).
Half-Maximal Degradation Concentration value (the drug concentration required for degrading proteins by 50%, abbreviated as DC50) reads method: comparing the grayscale values of Western blot bands from drug-treated samples with those from blank DMSO-treated controls, and identifying the drug concentration range at which the grayscale value is half that of the DMSO-treated control bands.
DC50 values can be calculated using ImageJ software to measure grayscale values of Western blot bands from drug-treated samples. The concentration-response curve is fitted to estimate the drug concentration corresponding to half the grayscale value.
Target protein remaining (%) refers to the percentage of target protein remaining in cells after treatment with protein degrader compounds.
Calculation method for target protein remaining (%): Use ImageJ software to measure grayscale values of Western blot bands from drug (protein degrader)-treated samples. The grayscale value of drug-treated bands is divided by that of internal control protein bands, and the resulting quotient is normalized to obtain the relative percentage of remaining target protein after protein degrader treatment.
Target protein degradation rate (%)=1−target protein remaining (%).

Experiment [1] relates to Human Acute T Lymphoblastic Leukemia Cells (Molt-4). Description: Inhibition of Molt-4 cell proliferation (CellTiter luminescent viability). The conditions noted are these: Homo sapiens; for inhibition at 0.01 µM: read-out: Inhibition Rate at 10 nM (%); for inhibition at 0.5 µM: read-out: Inhibition Rate at 500 nM (%). Here is the method:
(§1) The tumor cells used herein were cultured in a cell culture medium listed in table 3 at 37 °C in an incubator with 5% CO2. Prior to experimentation, all cell lines used were correctly identified by STR profiling, and tested negative for mycoplasma contamination using a mycoplasma detection kit through routine screenings.
(§2) The IC50 values of the compounds of the present disclosure (including the compounds in Table 1, Table 2, and Examples 1-468) were determined using the CellTiter-Meiluncell Luminescent Cell Viability Assay Kit from Dalian Meilun Biotech Co., Ltd. The detailed procedure is as follows: Tumor cells were seeded in 96-well cell culture plates at the densities specified in Table 4. On the following day, the test compounds of the present disclosure were subjected to serial dilution. The dilution can be performed according to one of the following two methods: • (1) The first dilution method: The test compounds of the present disclosure (including the compounds in Table 1, Table 2, and Examples 1-468) were subjected to 5-fold serial dilutions starting from a highest concentration of 2000 μM, resulting in a total of 9 concentrations from high to low (2000, 400, 80, 16, 3.2, 0.64, 0.128, 0.0256, 0.00512 μM). Subsequently, 0.5 μL of the test compound dilution was transferred into the 96-well plate containing the cells, with each well containing 100 μL of cell culture medium. […] Into the 96-well plate, the diluted test compounds and corresponding detection reagents were added, resulting in final test compound concentrations of 500 nM and 10 nM, respectively. The experimental procedure is described below using the diluted 2 μM test compound as an example.
(§3) 0.5 μL of the aforementioned diluted compound of the present disclosure (including the compounds in Table 1, Table 2, and Examples 1-468) was added to the seeded cells in 100 μL of medium, yielding a final test compound concentration of 10 nM. After the cells were treated with the compounds of the present disclosure for a specified period, the cell viability assay reagent was added to the culture medium according to the kit's instructions to determine cell viability. […] All controls were treated using the same procedure as the compounds of the present disclosure. The growth inhibition curves for the compounds of the present disclosure were plotted using Prism GraphPad software, and the IC50 values were calculated therefrom.

Experiment [2] deals with Human acute lymphocytic leukemia T lymphocytes cell line (CCRF-CEM). Description: Inhibition of CCRF-CEM cell proliferation (CellTiter luminescent viability). The conditions noted are these: Homo sapiens, 96 h; for inhibition at 0.01 µM: 10 nM, read-out: Inhibition Rate at 10 nM (%); for inhibition at 0.5 µM: 500 nM, read-out: Inhibition Rate at 500 nM (%). On the procedure: as §1, §2, §3

The subject of experiment [3] is Human Multiple myeloma cell line (MM.1S). Description: Inhibition of MM.1S cell proliferation (CellTiter luminescent viability). The conditions noted are these: Homo sapiens, MM1.S, 96 hours; for inhibition at 0.01 µM: 10 nM, read-out: Inhibition Rate at 10 nM (%); for inhibition at 0.5 µM: 500 nM, read-out: Inhibition Rate at 500 nM (%). On the procedure: as §1, §2, §3

The test system of experiment [4] is Human myeloid monocytic leukemia cell line (MV-4-11). Description: Inhibition of MV-4-11 cell proliferation (CellTiter luminescent viability). The following applies: Homo sapiens, MV4-11, Table IL2, BCR-ABL inhibitor-based, 96 hours. Here is the method:
as §1, §2, §3

Setting [5] is: MOLT-4, Molt-4, 10 nM, Table IN3.
The mark [6] stands for this setting: MOLT-4, Molt-4, 500 nM, Table IN3.
The mark [7] stands for this setting: MOLT-4, 96 h, Table IA2, IRAK4 inhibitor-based, Molt-4, 10 nM, 96 hours.
Where [8] appears, read: MOLT-4, 96 h, Table IA2, IRAK4 inhibitor-based, Molt-4, 500 nM, 96 hours.
Setting [9] is: Table IA5, IRAK4 inhibitor-based.
[10] abbreviates: Table IL1, BCR-ABL inhibitor-based.
Setting [11] is: Table IL3, BCR-ABL inhibitor-based.

As to `CC(C)Nc1cc(-n2ccc3cc(C#N)cnc32)ncc1C(=O)NC1CCN(CC2CCN(c3cccc4c3C(=O)N(N3CCC(=O)NC3=O)C4=O)CC2)CC1` [GT-05814, 6-(5-cyano-1H-pyrrolo[2,3-b]pyridin-1-yl)-N-(1-((1-(2-(2,4-dioxotetrahydropyrimidin-1(2H)-yl)-1,3-dioxoisoindolin-4-yl)piperidin-4-yl)methyl)piperidin-4-yl)-4-(isopropylamino) nicotinamide], the “Degradation of substrate protein IRAK4 (substrate protein remaining %)” value on IRAK4 is “A (0%≤substrate protein remaining %≤80%)”.
The inhibition is the share of the control response that was lost under treatment. For `C[C@@H]1CNC(=O)c2cc3ccc(C(=O)Nc4cnn(Cc5ccc(N6CCC(N7CCN(CC8CCN(c9ccc%10c(c9)C(=O)N(N9CCC(=O)NC9=O)C%10=O)CC8)CC7)CC6)cc5)c4)nc3n21` [GT-08343, (R)—N-(1-(4-(4-(4-((1-(2-(2,4-dioxotetrahydropyrimidin-1(2H)-yl)-1,3-dioxoisoindolin-5-yl)piperidin-4-yl)methyl)piperazin-1-yl)piperidin-1-yl)benzyl)-1H-pyrazol-4-yl)-9-methyl-6-oxo-6,7,8,9-tetrahydropyrido[3′,2′: 4,5]pyrrolo[1,2-a]pyrazine-2-carboxamide], the inhibition at 0.01 µM in experiment [1] (MOLT-4, Molt-4, 10 nM, Table IN2) fell in the range of 20 to 30%; in experiment [1] (setting [5]), 30 to 40%. For the same compound, the inhibition at 0.5 µM in experiment [1] (MOLT-4, Molt-4, 500 nM, Table IN2) was 30 to 50%; in experiment [1] (setting [6]), 60 to 70%.
On to `COc1cc2nn([C@H]3CC[C@H](CN4C[C@H]5C[C@@H]4CN5c4ccc5c(c4)C(=O)N(N4CCC(=O)NC4=O)C5=O)CC3)cc2cc1NC(=O)c1cccc(C(F)(F)F)c1` [GT-08663, N-(2-((1R,4r)-4-(((1R,4R)-5-(2-(2,4-dioxotetrahydropyrimidin-1(2H)-yl)-1,3-dioxoisoindolin-5-yl)-2,5-diazabicyclo[2.2.1]heptan-2-yl)methyl)cyclohexyl)-6-methoxy-2H-indazol-5-yl)-3-(trifluoromethyl)benzamide], for which the inhibition at 0.01 µM in experiment [1] (setting [7]) was 10 to 15%. Besides, the inhibition at 0.5 µM in experiment [1] (setting [8]) was in the range of 15 to 20%.
With `Cc1cc(-c2nc(C(=O)Nc3cc4oc(N5CCOCC5)nc4nc3N3CC[C@@H](O)C3)co2)ccn1` [emavusertib, Emavusertib, reference compound], in experiment [1] (setting [7]), the inhibition at 0.01 µM lay within 3 to 7%. In experiment [1] (setting [8]), the inhibition at 0.5 µM was in the range of 0 to 3%.
Take `C[C@@H]1CNC(=O)c2cc3ccc(C(=O)Nc4cnn(Cc5ccc(N6CCC(N7CCN(CC8CCN(c9cccc%10c9C(=O)N(N9CCC(=O)NC9=O)C%10=O)CC8)CC7)CC6)cc5)c4)nc3n21` [GT-08344, (R)—N-(1-(4-(4-(4-((1-(2-(2,4-dioxotetrahydropyrimidin-1(2H)-yl)-1,3-dioxoisoindolin-4-yl)piperidin-4-yl)methyl)piperazin-1-yl)piperidin-1-yl)benzyl)-1H-pyrazol-4-yl)-9-methyl-6-oxo-6,7,8,9-tetrahydropyrido[3′,2′: 4,5]pyrrolo[1,2-a]pyrazine-2-carboxamide]: the inhibition at 0.01 µM in experiment [1] (setting [5]) was in the range of 5 to 10%. In experiment [1] (setting [6]), the inhibition at 0.5 µM fell in the range of 80 to 100%.
`COc1cc2nn([C@H]3CC[C@H](CN4CC5CCC(C4)N5c4ccc5c(c4)C(=O)N(N4CCC(=O)NC4=O)C5=O)CC3)cc2cc1NC(=O)c1cccc(C(F)(F)F)c1` [GT-08665, N-(2-((1r,4r)-4-((8-(2-(2,4-dioxotetrahydropyrimidin-1(2H)-yl)-1,3-dioxoisoindolin-5-yl)-3,8-diazabicyclo[3.2.1]octan-3-yl)methyl)cyclohexyl)-6-methoxy-2H-indazol-5-yl)-3-(trifluoromethyl)benzamide]: the inhibition at 0.01 µM in experiment [1] (setting [7]) fell in the range of 15 to 20%. For the same compound, the inhibition at 0.5 µM in experiment [1] (setting [8]) is 15 to 20%.
For the compound `N#Cc1ccc(O[C@H]2CC[C@H](NC(=O)c3ccc(N4CCC(CN5CCN(c6cc(F)c7c(c6)C(=O)N(N6CCC(=O)NC6=O)C7=O)CC5)CC4)nn3)CC2)cc1Cl` [GT-05233, N-((1r,4r)-4-(3-chloro-4-cyanophenoxy)cyclohexyl)-6-(4-((4-(2-(2,4-dioxotetrahydropyrimidin-1(2H)-yl)-7-fluoro-1,3-dioxoisoindolin-5-yl)piperazin-1-yl)methyl)piperidin-1-yl)pyridazine-3-carboxamide], in experiment [2] (Table IF2, AR inhibitor-based), the inhibition at 0.01 µM lay within 15 to 20% and the inhibition at 0.5 µM was in the range of 20 to 30%.
With `Cn1c(=O)n(C2CCC(=O)NC2=O)c2cccc(C#CCOC3CCN(C[C@H]4CC[C@H](n5cc(NC(=O)c6cnn7ccc(N8C[C@H]9C[C@@H]8CO9)nc67)c(C(F)F)n5)CC4)CC3)c21` (stereo partly shown) [KT-474, reference compound], the inhibition at 0.01 µM in experiment [1] (setting [7]) was in the range of 7 to 10%; in experiment [3] (setting [9]), 5 to 10%. In addition, the values for the inhibition at 0.5 µM in experiment [1] (setting [8]) and in experiment [3] (setting [9]) were 7 to 10% and 15 to 20%, respectively.
For `Cc1nc(Nc2ncc(C(=O)Nc3c(C)cccc3Cl)s2)cc(N2CCN(CCO)CC2)n1` [Dasatinib, reference compound], the inhibition at 0.01 µM in experiment [3] (setting [10]) is 0 to 5%; in experiment [2] (setting [11]), 10 to 15%; in experiment [4] (MV-4-11, 10 nM, read-out: Inhibition Rate at 10 nM (%)) it was 10 to 15%. In addition, the inhibition at 0.5 µM in experiment [3] (setting [10]) lay within 15 to 20%; in experiment [2] (setting [11]), 15 to 20%; in experiment [4] (MV-4-11, 500 nM, read-out: Inhibition Rate at 500 nM (%)), 40 to 50%.

The values above are taken from patent US20260364184A1, “COMPOUND BASED ON OXOISOINDOLINYL-SUBSTITUTED TETRAHYDROPYRIMIDINE-DIONE AND USE THEREOF” (GLUETACS THERAPEUTICS (SHANGHAI) CO., LTD., priority 2023, published 2026).
